Consider seven molecules from patent US7652050B2, “Methods for increasing the survival of aquatic animals infected with an aquatic virus” (Laboratorio de Siagnóstico GAM S.A, priority 2001, dated 2010).

One data set deals with IPNV genomic RNA. The data set is classed as cell-based, infectious pancreatic necrosis virus (IPNV).
The next data set relates to IPNV particles. It counts as cell-based, infectious pancreatic necrosis virus (IPNV). The conditions noted are these: acivicin 25 and 70 μg/ml, 24 and 48 h.p.i.
Data set [1] has as its system IPNV. Nature of the data set: Modified viral plaque inhibition assay with pre-incubation of virus (virus cell entry). It counts as cell-based, infectious pancreatic necrosis virus (IPNV). The note with it: for EC50: Infectious pancreatic necrosis virus. On the procedure: Compounds derived from isoxazol are assayed for their ability to inhibit viral entry into the cell. To determine if acivicin blocks the entry of IPNV, a modified viral plaque inhibition assay was conducted. […] Control viral samples were not pre-incubated with acivicin. […] Overnight incubation of the virus in acivicin increased the ability of the isoxazol compound to inhibit viral plaques by 38 percent.

Data set [2] has as its system IPNV. Briefly: Survival of IPNV-infected Atlantic salmon fry treated with acivicin by immersion. It counts as in vivo.
Data set [3] is described as follows: Uninfected Atlantic salmon fry treated with acivicin (toxicity control). The data set is classed as in vivo. The conditions noted are these: uninfected fish treated with 14 μg/ml acivicin. On the procedure:
Starting nine days post-infection (day 9), surviving fish are divided into four groups of forty fish each and treated with 0, 7.0, 10.8, or 14.0 μg/ml of acivicin by immersion in a 2 hour daily bath containing […]. One group corresponded to untreated fish, and the other three groups corresponded to fish groups treated with different concentrations of acivicin. As a negative control, there were two groups of 40 healthy fish in each; one group corresponded to an uninfected fry administered 14 μg/ml of acivicin while the other group was not infected or administered acivicin. Daily treatment in acivicin continued through day 21 post-infection (day 21). The fish were followed for 36 days post-infection to detect and document mortality.

For data set [4], the system named is IPNV. Nature of the data set: Survival of naturally infected rainbow trout fry treated with acivicin. It counts as in vivo, rainbow trout (Onchorhynchus mykiss). As to the method:
FIG. 4 is a graph showing the effect of acivicin treatment on the survival of rainbow trout fry naturally infection with IPNV. The fish were followed for 30 days starting at day one of the acivicin treatments, to detect and document deaths. The data are presented in terms of percent survival: • ●---●: untreated naturally infected fish, positive control. • σ--σ: naturally infected fish treated with 9 μg/ml of Acivicin.
Acivicin was tested in vivo on thirty rainbow trout (Onchorhynchus mykiss). […] The fish were followed for 30 days following the first day of the acivicin treatments. Deaths were documented and presented in terms of percent survival. Results from methods assessing the effect of acivicin treatment on the survival of the trout fry naturally infected are shown in the graph at FIG. 4. Thirty days after the acivicin administration began, 90% of the trout fry had survived , while only 30% of the untreated control group had survived the same 30 day period. […] By contrast, in the untreated fish group, deaths continued during the first 25 days of the observation period.

The next data set is described as follows: Stability in solution. It counts as physicochemical.
The next data set relates to reovirus. The note with it: Balb/c cells; Keast et al. (1992); cited from earlier work.
Another data set can be described thus: in vitro. The conditions noted are these: Chinook salmon.
Data set [5] deals with IPNV strain VR-299. The conditions noted are these: cited from earlier work.
Data set [6] concerns IPNV. The note with it: cited from earlier work.
Data set [7] concerns IPNV strain VR-299. Briefly: Virus plaque inhibition assay. The note with it: Infectious pancreatic necrosis virus, CHSE-214, 72 h, read-out: EC50, effective antiviral concentration required to inhibit IPNV plaque formation by 50%. It counts as cell-based.
For data set [8], the system named is IPNV. Nature of the data set: Survival of IPNV-infected Atlantic salmon fry treated with neomycin by immersion. The conditions noted are these: neomycin 10, 40 and 80 ppm, 1 hour daily bath through day 23.
Data set [9] has as its system IPNV. The note with it: at 100 to 300 μg/ml; cited from earlier work.
[10] abbreviates: acivicin 25 and 70 μg/ml, 24 and 48 h.p.i.

Converted amounts (≈) assume the structure as drawn. “Also recorded” adds a separate entry of the source. Like-named read-outs stand apart in the source and are kept apart here.

For `N[C@H](C(=O)O)[C@@H]1CC(Cl)=NO1` [Acivicin, L (alpha S, 5S)-alpha-amino-3-chloro-4.5-dihydro-5-isoxazolacetic acid], in the data set on IPNV genomic RNA (setting [10]), the “Effect on IPNV genomic RNA synthesis” value is “did not inhibit”. For the same molecule, the “Effect on IPNV particle formation” value in the data set on IPNV particles was “inhibits the formation of IPNV viral particles”. Besides, the “EC50, virus samples pre-incubated 2 hours, versus not pre-incubated” value in the data set on IPNV [1] (2 hours pre-incubation) is recorded as “not significantly different”. Further, the EC50 is 4 µg/mL (≈ 22.4 µM) with IPNV [1] (no pre-incubation, read-out: EC50, virus samples without pre-incubation) and 2.5 µg/mL in the data set on IPNV [1] (pre-incubation with 1 to 6 μg/ml acivicin overnight, read-out: EC50, virus samples pre-incubated overnight with acivicin). Besides, the “Deaths after acivicin treatments were terminated” value with IPNV [2] (days 21-36, all three treated groups, untreated infected deaths reached 54 percent) is reported as “no deaths observed”. In addition, the “Day post-treatment by which deaths stopped completely” value in the data set on IPNV [2] (each of the treated groups, treatment began day 9 post-infection) is given as no more than 10 day post-treatment. The “Mortality rate (accumulated deaths)” value with IPNV [2] (infected fish, 7.0 μg/ml acivicin, 2 hour daily bath from day 9 to 21 post-infection, untreated infected 30%) was 30%. Also, the Survival in the data set on IPNV [2] (infected fish, 10.5 μg/ml acivicin) amounted to 92%; in the data set on IPNV [2] (infected fish, 14 μg/ml acivicin) it was 89%; in the data set with IPNV [4] (fry of approximately 0.8 g, treated 12 days with 9 μg/ml acivicin), 98%. In the data set with IPNV [2] (infected fish, 10.5 μg/ml acivicin, 2 hour daily bath from day 9 to 21 post-infection), the Accumulated deaths was 8%. Further, the Mortality in the data set with IPNV [2] (infected fish, 14 μg/ml acivicin, 2 hour daily bath from day 9 to 21 post-infection) is recorded as 11%. Further, the Toxicity in fish result in data set [3] is “not toxic in fish”. In addition, the “Day of treatment by which all deaths occurred” value in the data set on IPNV [4] (9 μg/ml acivicin, 15 day protocol, untreated deaths continued 25 days) is no more than 12 days. For the same molecule, the “Survival thirty days after administration began” value with IPNV [4] (fry 1.0±0.4 g, 9 μg/ml acivicin, daily bath of two hours, 15 days, untreated control 30%) is recorded as 90%. The Stability in solution entry in the data set “Stability in solution” is “stable in solution”. In addition, in the data set on reovirus, the “Concentration inhibiting reovirus replication” value is 0.1 µg/mL. This molecule also showed a CC50 in “in vitro” greater than 100 µg/mL. For the same molecule, the “Effect on IPNV polypeptide synthesis” value in the data set with IPNV polypeptides (setting [10]) is on record as “did not inhibit”.

As for `NC(=O)c1ncn([C@@H]2O[C@H](CO)[C@@H](O)[C@H]2O)n1` [Ribavirin], the “Inhibition of IPNV replication in vitro” value in the data set on IPNV strain VR-299 [5] (Migus et al. (1980)) is listed as “inhibit IPNV replication in vitro; also recorded: efficiently inhibits IPNV replication in vitro”. Besides, the “Efficacy against IPNV in vivo” value with IPNV [6] (Migus et al. (1980), Savan et al. (1980)) is listed as “no efficacy in vivo”.

For the molecule `Nc1ncnc2c1ncn2CC(O)C(=O)O` (centres unmarked) [AHPA, 3-adenine-9-yl-2-hydroxypropanoic acid], the CC50 at 3 days in “in vitro” stood at 75 µg/mL (≈ 336 µM).

On to `C#Cc1c(C(N)=O)ncn1[C@@H]1O[C@H](CO)[C@@H](O)[C@H]1O` [EICAR, 5-ethynyl-1-β-ribofuranosylimidazole-carboxamide], for which the “EC50 for IPNV” value with IPNV strain VR-299 [5] (Jashés et al., Antiviral Res. 29:309 (1996)) was 0.01 µg/mL. In addition, the “Deaths among experimentally IPNV-infected fry” value in the data set with IPNV [6] (rainbow trout and Coho salmon fry, given first day after infection, Moya et al. (2000)) is recorded as “fewer deaths occurred among the infected fry”.

In the case of `COc1c(C)c2c(c(O)c1C/C=C(\C)CCC(=O)O)C(=O)OC2` [Myconhenolic Acid, 6-(4-hydroxy-6-methoxy-7-methyl-3-oxo-5-phthalanyl)-4-methyl-4-hexenoic acid], in the data set on IPNV strain VR-299 [7], the EC50 worked out at 0.5 µg/mL (≈ 1.56 µM). In addition, the CC50 at 3 days in the data set “in vitro” was greater than 50 µg/mL.

Turning to neomycin, the “Effect on IPNV genomic RNA synthesis” value in the data set with IPNV genomic RNA (neomycin 4 mg/ml added 1, 3, 5, 7 h.p.i., harvest 24 h.p.i.) is listed as “inhibited the IPNV RNA synthesis”. Moreover, the “Mortality outbreak, treatment from day thirteen post-infection” value in the data set with IPNV [8] is “stop the mortality outbreak immediately”; in the data set with IPNV [8] (listed as neomycin) it was “stopped dying immediately”. Also, the “Effect on IPNV polypeptide synthesis” value in the data set on IPNV polypeptides (neomycin 4 mg/ml added 1, 3, 5, 7 h.p.i., 24 h.p.i.) is “does not inhibit IPNV polypeptide synthesis”.

Consider `Nc1ncnc2c1ncn2C[C@H](O)CO` [DHPA, (S)-9-(2.3-dihydroxypropyl) adenine], for which the “Cytotoxicity in RTG-2 cells” value in the data set with IPNV [9] is recorded as “without presenting cytotoxicity”.
